Assays:
β2-adrenergic receptor [1] = biological target: T1, β2-adrenergic receptor (Homo sapiens, UniProt P07550); assay type: cell-based; details: for outcome in high-throughput screen of kinase/phosphatase inhibitor library: library at 3 uM, 384-well plate, duplicate
T1 construct: expressed in transfected cells; host or cells: C2C12 myoblasts (retroviral transduction)

β2-adrenergic receptor [2] = biological target: T1, β2-adrenergic receptor; assay type: cell-based; details: compound applied 30 min before stimulation with 10 uM isoproterenol
Procedure: Assays and cell preparation. […] LysoTracker Red and Texas Red-labeled transferrin were purchased from Molecular Probes. The Kinase/Phosphatase Inhibitor Library was purchased from BIOMOL, and the Mechanistic and Diversity Compound Libraries were provided by the Developmental Therapeutics Program of the National Cancer Institute. Cells were plated and grown to confluency in 96-well white tissue culture dishes (Corning Costar), in 100 μl of growth media. Dose-response curves were generated by adding the respective ligand to the media and incubating for 2 h at 37° C. […] At the end of the described incubation time, Gal-Screen reagent (Buffer B formulation, Applied Biosystems) was used to assay for β-galactosidase activity, according to manufacturer's protocol; media was aspirated from the plate, and 50 μl (or 25 μl for 384-well plates, without prior media aspiration) of Gal-Screen substrate diluted in lysis buffer was added to each well.

[3] = biological target: Angiotensin II receptor 1a (AT1a) (Mus musculus, UniProt P29754); details: 2 hr
Source text: Plasmids. […] Other FYVE domains were generated similarly by RT-PCR^˜. […] To generate a β2AR-eYFP-α construct, the eYFP-α fragment was subcloned into the β2AR-ωplasmid using Xhol and HindIII. The Angiotensin receptor 1a was derived by RT-PCR from C57/BI6 mouse brain RNA using primers for the entire coding sequence, minus the stop codon; it was cloned N-terminally to eYFP-α or ω with MfeI and XhoI. […] Finally, to generate fusion proteins with β-arrestin, the full coding sequence of human β-arrestin B2 was PCR amplified from a cDNA clone and inserted into the Mfel-XhoI sites of the ω and eYFP-α vectors.
Assays and cell preparation. […] LysoTracker Red and Texas Red-labeled transferrin were purchased from Molecular Probes. The Kinase/Phosphatase Inhibitor Library was purchased from BIOMOL, and the Mechanistic and Diversity Compound Libraries were provided by the Developmental Therapeutics Program of the National Cancer Institute. Cells were plated and grown to confluency in 96-well white tissue culture dishes (Corning Costar), in 100 μl of growth media. Dose-response curves were generated by adding the respective ligand to the media and incubating for 2 h at 37° C. […]

T1 sequence (P07550 whole entry, species assumed): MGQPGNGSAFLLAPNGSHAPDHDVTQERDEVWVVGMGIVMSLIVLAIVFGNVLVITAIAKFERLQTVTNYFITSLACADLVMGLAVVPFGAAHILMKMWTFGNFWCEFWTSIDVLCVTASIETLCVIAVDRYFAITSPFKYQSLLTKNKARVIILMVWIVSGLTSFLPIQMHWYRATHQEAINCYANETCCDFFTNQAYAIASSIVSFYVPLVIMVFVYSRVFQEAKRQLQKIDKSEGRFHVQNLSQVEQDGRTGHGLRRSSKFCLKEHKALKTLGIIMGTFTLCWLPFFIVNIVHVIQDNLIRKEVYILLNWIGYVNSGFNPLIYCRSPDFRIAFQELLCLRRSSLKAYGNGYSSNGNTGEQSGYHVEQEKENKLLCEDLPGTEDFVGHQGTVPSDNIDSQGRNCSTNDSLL

## O=CN/C=C/c1cc(O)ccc1O [erbstatin]
β2-adrenergic receptor [1]
  outcome in high-throughput screen of kinase/phosphatase inhibitor library: inhibitors of internalization

## CN[C@@H]1C[C@H]2O[C@@](C)([C@@H]1OC)n1c3ccccc3c3c4c(c5c6ccccc6n2c5c31)C(=O)NC4 [staurosporine]
β2-adrenergic receptor [1]
  outcome in high-throughput screen of kinase/phosphatase inhibitor library: inhibitors of internalization

## COC[C@H]1OC(=O)c2coc3c2[C@@]1(C)C1=C(C3=O)[C@@H]2CCC(=O)[C@@]2(C)C[C@H]1OC(C)=O [wortmannin]
β2-adrenergic receptor [1]
  inhibition, internalization assay: approximately 90%
β2-adrenergic receptor [2]
  inhibition of activation: approximately 50%

## angiotensin II
[3]
  increase in activity, internalization assay: 4 fold
  increase in enzyme activity, arrestin-binding activation assay: 8.5 fold

Source: patent US8426138B2 (priority 2006, dated 2013)
